Test [1] concerns the target T1, Met kinase (Homo sapiens, UniProt P08581). In words: Met kinase inhibition, flashplate method (enzyme). The format is biochemical. Also on record: 6His (N); purchased Upstate 14-526; host or cells: Sf21 insect cells (S. frugiperda), baculovirus. An excerpt:
Measurement of Met Kinase Activity
According to the manufacturer's data (Met, active, upstate, catalogue No. 14-526), Met kinase is expressed for the purposes of protein production in insect cells (Sf21; S. frugiperda) and subsequent affinity-chromatographic purification as “N-terminal 6His-tagged” recombinant human protein in a baculovirus expression vector.
Flashplate Method (Met Kinase)
The test plates used are 96-well Flashplate® microtitre plates from Perkin Elmer (Cat. No. SMP200). The components of the kinase reaction described below are pipetted into the assay plate. The Met kinase and the substrate poly Ala-Glu-Lys-Tyr, (pAGLT, 6:2:5:1), are incubated for 3 hrs at room temperature with radioactively labelled ^33P-ATP in the presence and absence of test substances in a total volume of 100 μl. The reaction is terminated using 150 μl of a 60 mM EDTA solution. After incubation for a further 30 min at room temperature, the supernatants are filtered off with suction, and the wells are washed three times with 200 μl of 0.9% NaCl solution each time. The measurement of the bound radioactivity is carried out by means of a scintillation measuring instrument (Topcount NXT, Perkin-Elmer).
The full value used is the inhibitor-free kinase reaction. This should be approximately in the range 6000-9000 cpm. […] The inhibitory values (IC50) are determined using the RS1_MTS program. […]
Target sequence in this assay (P08581 974-1390 limits assumed): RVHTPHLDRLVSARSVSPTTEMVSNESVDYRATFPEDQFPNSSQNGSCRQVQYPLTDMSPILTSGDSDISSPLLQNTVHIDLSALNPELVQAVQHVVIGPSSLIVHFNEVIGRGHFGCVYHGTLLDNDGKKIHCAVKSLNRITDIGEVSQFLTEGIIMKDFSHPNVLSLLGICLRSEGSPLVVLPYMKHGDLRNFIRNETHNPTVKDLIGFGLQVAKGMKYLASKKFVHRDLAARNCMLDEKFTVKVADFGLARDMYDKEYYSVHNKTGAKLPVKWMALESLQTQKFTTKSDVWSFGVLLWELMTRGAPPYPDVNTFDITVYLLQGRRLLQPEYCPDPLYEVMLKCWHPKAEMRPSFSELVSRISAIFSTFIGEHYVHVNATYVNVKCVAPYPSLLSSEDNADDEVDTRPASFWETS

The target of test [2] is T1, Met kinase. The test can be described thus: Met kinase inhibition (cell). The format is cell-based.
Target sequence in this assay (P08581 25-1390): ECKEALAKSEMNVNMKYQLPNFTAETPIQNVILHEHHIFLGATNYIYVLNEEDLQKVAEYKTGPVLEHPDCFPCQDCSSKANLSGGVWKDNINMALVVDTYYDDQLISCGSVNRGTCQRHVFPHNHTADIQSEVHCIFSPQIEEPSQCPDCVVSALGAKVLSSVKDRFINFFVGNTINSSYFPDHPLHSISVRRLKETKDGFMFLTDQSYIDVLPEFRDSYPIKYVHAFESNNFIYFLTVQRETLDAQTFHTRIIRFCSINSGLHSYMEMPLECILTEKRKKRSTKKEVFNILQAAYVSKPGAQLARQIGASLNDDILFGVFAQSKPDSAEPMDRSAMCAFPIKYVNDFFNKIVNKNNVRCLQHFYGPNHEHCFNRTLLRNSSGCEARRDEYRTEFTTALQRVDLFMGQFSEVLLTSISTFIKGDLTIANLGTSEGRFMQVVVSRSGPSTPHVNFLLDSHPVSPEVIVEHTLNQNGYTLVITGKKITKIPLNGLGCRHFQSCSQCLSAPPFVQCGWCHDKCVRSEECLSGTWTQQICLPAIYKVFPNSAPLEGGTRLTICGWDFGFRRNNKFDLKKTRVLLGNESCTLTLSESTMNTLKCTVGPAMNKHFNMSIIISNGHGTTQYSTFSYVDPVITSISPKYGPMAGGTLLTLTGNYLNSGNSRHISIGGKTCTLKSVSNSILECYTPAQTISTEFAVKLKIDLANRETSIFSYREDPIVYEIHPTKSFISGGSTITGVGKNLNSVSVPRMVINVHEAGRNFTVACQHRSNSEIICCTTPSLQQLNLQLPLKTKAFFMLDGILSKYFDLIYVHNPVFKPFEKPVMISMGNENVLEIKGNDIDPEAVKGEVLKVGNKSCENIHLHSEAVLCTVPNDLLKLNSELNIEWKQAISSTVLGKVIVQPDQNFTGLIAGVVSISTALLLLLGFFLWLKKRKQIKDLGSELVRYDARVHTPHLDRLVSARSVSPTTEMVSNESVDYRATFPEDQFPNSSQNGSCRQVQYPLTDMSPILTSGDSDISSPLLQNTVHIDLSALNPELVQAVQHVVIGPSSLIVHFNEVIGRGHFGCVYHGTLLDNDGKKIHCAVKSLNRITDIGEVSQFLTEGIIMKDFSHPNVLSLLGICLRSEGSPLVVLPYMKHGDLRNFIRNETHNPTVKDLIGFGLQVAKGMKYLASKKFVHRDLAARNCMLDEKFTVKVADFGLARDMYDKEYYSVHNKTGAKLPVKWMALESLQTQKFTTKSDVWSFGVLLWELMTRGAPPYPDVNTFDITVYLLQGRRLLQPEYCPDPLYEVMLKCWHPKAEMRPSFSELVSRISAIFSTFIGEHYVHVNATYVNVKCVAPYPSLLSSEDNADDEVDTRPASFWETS

For `Cc1ccc(-c2cccc(Cn3nc(-c4cc(F)cc(F)c4)ccc3=O)n2)nc1` [Compound A1, 6-(3,5-difluorophenyl)-2-(5′-methyl-[2,2′]bipyridinyl-6-ylmethyl)-2H-pyridazin-3-one], the IC50 – broadly, the concentration that inhibits the measured activity by half – is 10 to 1000 nM at Met kinase [1] and 1000 to 10000 nM at Met kinase [2].

`N#Cc1cccc(-c2ccc(=O)n(Cc3cccc(-c4ncc(-c5cnn(CCN6CCCC6)c5)cn4)n3)n2)c1` [Compound A2, 3-[6-oxo-1-(6-{5-[1-(2-pyrrolidin-1-ylethyl)-1H-pyrazol-4-yl]pyrimidin-2-yl}pyridin-2-ylmethyl)-1,6-dihydropyridazin-3-yl]benzonitrile] yielded an IC50 against Met kinase [2] of 10 to 1000 nM.

The record behind these values is US8604036B2, “Pyridazinone derivatives” (Merck Patent GmbH, priority 2008, dated 2013).
